Experimental data from patent EP3666770A1, “NOVEL HETEROCYCLIC COMPOUNDS AS CDK8/19 INHIBITORS” (Joint Stock Company "Biocad", priority 2017, dated 2019).

Assays:
[1] = General cytotoxicity test on HepG2 cells; format: cell-based; settings: human, HepG2 cells; 72 h incubation; 200 to 0.78 µM; average values of several tests; read-out: Hep-G2 CC50, mkM
Experimental: Cell viability was assessed using the above method. Table 6. […] The results are presented as average values of activity obtained in several tests.

[2] = Permeability through Caco-2 cell monolayer; format: in vitro ADME; settings: human, Caco-2; for Papp A→B at 2 h, 10 µM: A->B transfer, pH 6.5 -> pH 7.4, 2 hours at 37 °C; for efflux ratio at 2 h, 10 µM: efflux = Papp B-A / Papp A-B
Experimental: Estimation of permeability through Caco-2 cell monolayer enables assessment of the ability of the substances to penetrate through biological membranes by means of both active and passive transport.
Intestinal epithelial cells Caco-2 were grown on filter inserts (pore size 0.4 µm, BD Falcon with High Density) for 21 days; monolayer integrity was then checked using Lucifer Yellow (Sigma-Aldrich, USA) according to the standard protocol. In A->B transfer ("intestinal lumen" - "blood stream" transfer), solutions of the test substances in buffer, pH 6.5 (HBSS, 10 mM HEPES, 15 mM glucose) at a concentration of 10 µM were added to the upper chamber; whereas the lower chamber was filled with buffer, pH 7.4 (HBSS, 10 mM HEPES, 15 mM Glucose, 1% BSA). In B->A transfer ("blood stream" - "intestinal lumen" transfer), the upper chamber was filled with buffer, pH 6.5, whereas the solutions of the test substances in buffer, pH 7.4, at a concentration of 10 µM were added to the lower chamber. A highly permeable substance propranolol was used as a control.
After 2 hours incubation at 37 ° C under an atmosphere containing 5% CO2, the amounts of the test substances in the upper and lower chambers were measured by HPLC using an Agilent1200 HPLC system (Agilent, USA), proteins were preliminarily precipitated with acetonitrile. Chromatographic analysis was performed in a gradient elution regime with a flow rate of 1 mL/min. The peak areas corresponding to the compounds were detected on chromatograms.
The value was calculated using the formula: efflux = Papp B−A /Papp A−B , [formula] where • Papp A-E - the value of permeability direct analysis A→ B; • Papp B-A - the value of the permeability of the reverse analysis B→ A.

[3] = Chemical stability in simulated gastric fluid (SGF); format: physicochemical; settings: SGF without enzymes, pH=1,4; 10 µm; 2 hours at 37°C; substance amount in % after thermostatting
Experimental: (§1) Chemical stability of the compounds described herein was determined in simulated gastric fluid and human blood plasma.
SGF concentrate without enzymes, pH=1,4 (Sigma Ireland, cat#01651) was used as simulated gastric fluid. Initial candidate solution (10 mM in DMSO) was diluted with an SGF working solution to a concentration of […] (test solution). The test solution was incubated in a dry block thermostat for 2 hours at 37°C. HPLC with Agilent 1200 liquid chromatography system (Agilent, USA) was employed to determine peak areas of the compounds in test samples, said peak areas corresponding to the initial test time (prior to incubation) and the final test time (after incubation in a dry block thermostat for 2 hours at 37°C). Chromatographic analysis was performed in a gradient elution regime with a flow rate of 1 mL/min. Substance amount in % in a sample after thermostatting was determined.

MV4-11 = assay: Cell-based antiproliferative test (AlamarBlue), MV4-11; settings: Homo sapiens, MV4-11, 120 h, 120 h incubation; average values of several tests; read-out: MV-4-11 IC50, mkM
Experimental: (§2) Antiproliferative activity of CDK8 inhibitors according to the present invention was measured in a cell-based test on continuous cell cultures MV4-11 (biphenotypic myelomonocytic leukemia, ATCC® CRL-9591™), KG-1 (acute myeloid leukemia, ATCC® CCL-246™), HL-60 (acute promyelocytic leukemia, ATCC® CCL-240™) using a vital stain AlamarBlue (ThermoFisher, #DAL1100). The cells were grown in RPMI-1640 (PanEco, #C330p) medium with addition of 10% FBS (Gibco, #16140-071); washed and resuspended in culture medium with 10% FBS (Gibco, #16140-071) in 96-well culture plates (Corning, #3599) with ≈ 10 ×10^3 cells in […] of medium per well. The compounds in question were dissolved in DMSO and diluted with a medium with 10% FBS (Gibco, #16140-071) to a final concentration ranging form 0 to 100 µM. […] of diluted compounds were then added to each well (final DMSO concentration was less than 1%) and incubated under 5% CO2 atmosphere at 37°C for 120 h. After incubating, 15 µL of AlamarBlue (ThermoFisher, #DAL1100) reagent was added per well, contents of plates were mixed in an orbital shaker (Biosan, Latvia) and further incubated for 3-5 h at 37°C under 5% CO2 atmosphere. Number of living cells was estimated using a microplate spectrophotometer (Tecan Infinite M200Pro, Switzerland) measuring fluorescent signal at the excitation wavelength (λEx) of 540 nm and emission wavelength (λEm) of 590 nm.
(§3) IC50 was calculated using Magellan 7.2 software (Tecan, Switzerland) approximating experimental points by four-parameter logistic model with the optimization by Levenberg-Marquardt (table 7, table 7).

[4] = Enzyme stability in human liver microsomes; format: in vitro ADME; settings: pH 7.4; 0,5 mg/mL pooled human liver microsomes; 10 µM compound; 37°C; pH=7,4
Experimental: Measuring of candidates' enzyme stability enabled estimation of the stability of the present compounds towards the action of enzymes in liver microsomes.
Enzyme degradation rate was measured by incubating the reaction mixture in a dry block thermostat at 37°C, said reaction mixture comprising 0,5 mg/mL of pooled human liver microsomes (XenoTech, USA, cat#H2620), 10 µM compound, 2 mM β-nicotinamide adenine dinucleotide (Carbosynth, UK, cat#NN10871) and 4 mM magnesium chloride in 0,1 M sodium-phosphate buffer, pH=7,4. The reaction was quenched with acetonitrile (100 µL of acetonitrile / 100 µL of the reaction mixture). After quenching, the samples were centrifuged at 10000 rpm for 10 minutes. Supernatant fluid was tested by chromatographic technique using Agilent1200 (Agilent, USA). Chromatographic analysis was performed in a gradient elution regime with a flow rate of 1 mL/min. A graph of the logarithm of substance's peak area as a function of time was made. The dependent factor of the line corresponded to the elimination rate constant K based on which the drug's half-life t1/2 and degradation rate CLint were calculated: Elimination rate constant (k) = (−gradient) [formula] [formula] V(μL/mg) = (volume of incubation(μL))/(protein in the incubation(mg)) [formula] [formula]

[5] = Chemical stability in human blood plasma; format: in vitro ADME; settings: pooled human blood plasma; 10 µM; 4 hours at 37°C; substance amount in % after thermostatting
Experimental: as §1
Determination of stability in human blood plasma was performed using pooled human blood plasma taken from ten healthy donors. The initial candidate solution (10 mM in DMSO) was diluted with pooled blood plasma to a concentration of […] (test solution). The test solution was incubated in a dry block thermostat for 4 hours at 37°C. HPLC with Agilent 1200 liquid chromatography system (Agilent, USA) was employed to determine peak areas of the compounds in test samples, said peak areas corresponding to the initial test time (prior to incubation) and the final test time (after incubation in a dry block thermostat for 4 hours at 37°C), proteins were preliminarily precipitated with acetonitrile. Chromatographic analysis was performed in a gradient elution regime with a flow rate of 1 mL/min. Substance amount in % in a sample after thermostatting was determined.

KG-1 = assay: Cell-based antiproliferative test (AlamarBlue), KG-1; settings: Homo sapiens, KG-1; 120 h incubation; average values of several tests; read-out: KG-1 IC50, mkM
Experimental: as §2, §3

SMILES	CC50 at 72 h [1]	Papp A→B at 2 h, 10 µM [2]	efflux ratio at 2 h, 10 µM [2]	Stability in SGF, % [3]	IC50 (MV4-11)	microsomal CLint at 10 µM [4]	Stability in blood plasma, % [5]	IC50 (KG-1)
O=C(C1CN(c2cc(F)c3ncn(-c4ccc(-c5cn[nH]c5)cc4)c3c2)C1)N1CCOCC1 [CDK8-1-8, (1-(1-(4-(1H-Pyrazol-4-yl)phenyl)-4-fluoro-1H-benzo[d]imidazol-6-yl)azetidin-3-yl)(morpholino)methanone]	> 200 µM	19.7 ×10⁻⁶ cm/s	2.9	100%	3.92 µM	23.4 µL/min/mg	97.8%	
CN1CCN(C(=O)c2cnc3c(N)ncc(-c4ccc(-c5cnn(C)c5)cc4)c3c2)CC1 [CDK8-3-31, (8-Amino-5-(4-(1-methyl-1H-pyrazol-4-yl)phenyl)-1,7-naphthyridin-3-yl)(4-methylpiperazin-1-yl) methanone]								0.002 µM
CN(C)c1ccc(-c2cnc3[nH]cc(C(=O)c4cccnc4)c3c2)cc1O [CDK8-4-5]	7.7 µM	87.6 ×10⁻⁶ cm/s	0.12	99.2%	0.62 µM	26.6 µL/min/mg	100%	
O=C(c1cccnc1)c1c[nH]c2ncc(-c3ccc(N4CCOCC4)c(O)c3)cc12 [CDK8-4-7, (5-(3-Hydroxy-4-morpholinophenyl)-1H-pyrrolo[2,3-b]pyridin-3-yl) (pyridin-3-yl) methanone]	> 200 µM	64.5 ×10⁻⁶ cm/s	0.34	99.1%	0.39 µM	23.2 µL/min/mg	93.8%	
O=C(c1ccncc1)c1c[nH]c2ncc(-c3ccc(N4CCOCC4)c(O)c3)cc12 [CDK8-4-11, (5-(3-Hydroxy-4-morpholinophenyl)-1H-pyrrolo[2,3-b]pyridin-3-yl) (pyridin-4-yl) methanone]	> 200 µM	13.9 ×10⁻⁶ cm/s	1.54	98.1%	1.33 µM	15 µL/min/mg	88.5%	
COc1cc(-c2cnc3[nH]cc(C(=O)c4ccccn4)c3c2)ccc1N1CCOCC1 [CDK8-4-23, (5-(3-Methoxy-4-morpholinophenyl)-1H-pyrrolo[2,3-b]pyridin-3-yl) (pyridin-2-yl) methanone]	> 100 µM	36.9 ×10⁻⁶ cm/s	0.14	100%	0.1 µM	12.8 µL/min/mg	87.4%	
COc1ccc(-c2cnc3[nH]cc(C(=O)c4ccncc4)c3c2)cc1 [CDK8-4-33, (5-(4-Methoxyphenyl)-1H-pyrrolo[2,3-b]pyridin-3-yl) (pyridin-4-yl)methanone]	> 100 µM	13.4 ×10⁻⁶ cm/s	1.5	100%	19.7 µM	21.2 µL/min/mg	100%	
O=C(c1ccnc2ccc(-c3ccc(-c4cn[nH]c4)cc3)cc12)N1CCCCC1 [CDK8-5-4, (6-(4-(1H-Pyrazol-4-yl)phenyl)quinolin-4-yl) (piperidin-1-yl)methanone]	66.1 µM			99.9%	9.56 µM	37 µL/min/mg	100%	
N=C(c1ccnc2ccc(-c3ccc(-c4cn[nH]c4)cc3)cc12)N1CCCCC1 [CDK8-5-4i, (6-(4-(1H-Pyrazol-4-yl)phenyl)quinolin-4-yl) (piperidin-1-yl)methanimine]	> 100 µM			98.8%	4.32 µM	19 µL/min/mg	100%	
COC1CN(C(=O)c2ccc3nccc(-c4ccc(-c5cn[nH]c5)cc4)c3c2)C1 [CDK8-6-4, (4-(4-(1H-Pyrazol-4-yl)phenyl)quinolin-6-yl)(3-methoxyazetidin-1-yl) methanone]	66.6 µM			100%	7.79 µM	16.2 µL/min/mg	100%	
